“Also recorded” adds a separate entry of the source. Like-named read-outs stand apart in the source and are kept apart here. Where a SMILES comes first, the peptide text is derived from it. [ ]: non-standard residue; d: D form. The star is where a group is joined. sY = N[C@@H](Cc1ccc(OS(=O)(=O)O)cc1)C(=O)O; Cbz = O=C(OCc1ccccc1)*; Boc = CC(C)(C)OC(=O)*
How the values were obtained:
CCK receptor = details: structure-function studies; cited from earlier work
[1] = target: T1, CCK receptor (guinea pig cerebral cortex) (Cavia porcellus, UniProt H0VZC5); assay: 125I-CCK receptor binding (brain); details: 125I-CCK-33, guinea pig cerebral cortex, 25° C., 2 hours
T1 construct: Cerebral cortex was dissected and used as a receptor source; from tissue; host or cells: cerebral cortex of male Hartley guinea pigs (membranes)
T1 sequence (H0VZC5 entry or part of it): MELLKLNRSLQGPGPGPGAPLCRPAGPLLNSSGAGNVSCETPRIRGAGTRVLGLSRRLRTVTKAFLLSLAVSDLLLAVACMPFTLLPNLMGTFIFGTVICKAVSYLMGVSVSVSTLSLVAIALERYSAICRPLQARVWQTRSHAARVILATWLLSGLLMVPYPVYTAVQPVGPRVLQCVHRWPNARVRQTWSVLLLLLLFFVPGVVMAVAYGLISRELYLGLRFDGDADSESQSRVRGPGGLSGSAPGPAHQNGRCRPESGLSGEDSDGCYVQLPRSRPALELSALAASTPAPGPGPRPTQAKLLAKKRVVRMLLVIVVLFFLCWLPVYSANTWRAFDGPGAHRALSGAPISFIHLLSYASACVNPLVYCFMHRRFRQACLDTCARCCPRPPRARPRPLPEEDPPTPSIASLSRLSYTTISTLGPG
Procedure: CCK-33 was radiolabeled and the binding was performed according to the description for the pancreas method with modifications according to Saito et al., J. Neurochem. 37, 483-490, 1981.
Male Hartley guinea pigs (300-500 g) were sacrificed by decapitation and the brains were removed and placed in ice-cold 50 mM, Tris HCl plus 7.58 g/l Trizma-7.4 (pH 7.4 at 25° C.). Cerebral cortex was dissected and used as a receptor source. Each gram of fresh guinea pig brain tissue was homogenized in 10 ml of Tris Trizma buffer with a Brinkman polytron PT-10. The homogenates were centrifuged at 42,000 g for 15 min. […] All assays were run in duplicate or triplicate. The reaction mixtures were incubated at 25° C. for 2 hours and centrifuged in a Beckman Microfuge (4 minutes) immediately after adding 1 ml of ice-cold incubation buffer. The supernatant was aspirated and discarded, pellets were counted with a Beckman gamma 5000.

[2] = target: T2, CCK receptor (rat pancreas membranes) (Rattus norvegicus, UniProt P30551); assay: 125I-CCK receptor binding (pancreas); details: for effect on the 125I-CCK receptor binding assay: added as protease inhibitor
T2 construct: The whole pancreas was dissected free of fat tissue and was homogenized; from tissue; host or cells: pancreas of male Sprague-Dawley rats (membranes)
T2 sequence (P30551 1-444): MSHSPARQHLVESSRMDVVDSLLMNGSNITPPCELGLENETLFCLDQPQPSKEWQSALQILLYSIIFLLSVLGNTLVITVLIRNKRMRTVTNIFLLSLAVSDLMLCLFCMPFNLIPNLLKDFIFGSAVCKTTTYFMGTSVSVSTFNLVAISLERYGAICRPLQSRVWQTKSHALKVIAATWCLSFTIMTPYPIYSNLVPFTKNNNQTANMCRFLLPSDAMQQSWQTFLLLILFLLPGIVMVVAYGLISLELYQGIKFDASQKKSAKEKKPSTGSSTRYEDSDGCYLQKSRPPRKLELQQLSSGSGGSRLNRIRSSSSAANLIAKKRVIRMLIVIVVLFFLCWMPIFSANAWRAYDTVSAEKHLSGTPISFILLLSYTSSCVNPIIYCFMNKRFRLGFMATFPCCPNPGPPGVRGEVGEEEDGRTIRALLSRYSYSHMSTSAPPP
Procedure: CCK-33 was radiolabeled with ^125 I-Bolton Hunter reagent (2000 Ci/mmole) as described by Sankara et al. (J. Biol. Chem. 254: 9349-9351, 1979). Receptor binding was performed according to Innis and Snyder (Proc. Natl. Acad. Sci. 77: 6917-6921, 1980) with the minor modification of adding the additional protease inhibitors, phenylmethane sulfonyl fluoride and o-phenanthroline. The latter two compounds have no effect on the ^125 I-CCK receptor binding assay.
Male Sprague-Dawley rats (200-350 g) were sacrificed by decapitation. The whole pancreas was dissected free of fat tissue and was homogenized in 20 volumes of ice-cold 50 mM, Tris HCl (pH 7.7 at 25° C.) with a Brinkmann Polytron PT 10. The homogenates were centrifuged at 48,000 g for 10 min. Pellets were resuspended in Tris Buffer, centrifuged as above and resuspended in 200 volumes of binding assay buffer (50 mM Tris HCl, pH 7.7 at 25° C., 5 mM dithiothrietol, 0.1 mM bacitracin, 1.2 mM phenylmethane sulfonyl fluoride and 0.5 mM o-phenanthroline). […] All assays were run in duplicate or triplicate. The reaction mixtures were incubated at 37° C. for 30 minutes and centrifuged in a Beckman Microfuge (4 minutes) immediately after adding 1 ml of ice-cold incubation buffer. The supernatant was aspirated and discarded, pellets were counted with a Beckman gamma 5000. For Scatchard analysis (Ann. N.Y. Acad. Sci. 51: 660, 1949), ^125 I-CCK-33 was progressively diluted with increasing concentrations of CCK-33

gastrin receptor = target: T3, gastrin receptor (Cavia porcellus, UniProt H0VZC5); assay: Gastrin receptor binding in guinea pig gastric glands; details: guinea pig gastric mucosal glands
T3 construct: Gastric mucosa from guinea pigs (300-500 g body weight, male Hartley) were washed thoroughly and minced; from tissue; host or cells: gastric mucosal glands of male Hartley guinea pigs
T3 sequence (H0VZC5 entry or part of it): as the sequence (H0VZC5 entry or part of it) above
Procedure: Gastrin antagonist activity of compounds of Formula I is determined using the following assay: […]
GASTRIN RECEPTOR BINDING IN GUINEA PIG GASTRIC GLANDS
Guinea pig gastric mucosal glands were prepared by the procedure of Berglingh and Obrink Acta Physiol. Scand. 96: 150 (1976) with a slight modification according to Praissman et al. C. J. Receptor Res. 3: (1983). Gastric mucosa from guinea pigs (300-500 g body weight, male Hartley) were washed thoroughly and minced with fine scissors in standard buffer consisting of the following: 130 mM NaCl, 12 mM NaHCO3, 3 mM NaH2 PO4, 3 mM Na2 HPO4, 3 mM K2 HPO4, 2 mM MgSO4, 1 mM CaCl2, 5 mM glucose and 4 mM L-glutamine, 25 mM HEPES at pH 7.4. The minced tissues were washed and then incubated in a 37° C. shaker bath for 40 minutes with the buffer containing 0.1% collagenase and 0.1% BSA and bubbled with 95% O2 and 5% CO2. The tissues were passed twice through a 5 ml glass syringe to liberate the gastric glands, and then filtered through 200 mesh nylon. The filtered glands were centrifuged at 270 g for 5 minutes and washed twice by resuspension and centrifugation.

gastrin = details: in vitro; cited from earlier work
[3] = 125I-CCK-33, rat pancreas, 37° C., 30 minutes, read-out: IC50 (uM) 125I-CCK Pancreas

Compound | IC50 [1] [µM] | IC50 [2, 3] [µM] | other results
CSCC[C@H](NC(=O)OC(C)(C)C)C(=O)N[C@@H](CC(=O)O)C(=O)N[C@@H](Cc1ccccc1)C(N)=O [Boc-Met-Asp-Phe-NH2] (Boc-Met-Asp-Phe-NH2) | – | – | CCK antagonist activity (CCK receptor): can function as CCK antagonists
CSCC[C@H](NC(=O)[C@H](Cc1ccc(OS(=O)(=O)O)cc1)NC(=O)OCc1ccccc1)C(=O)NCC(=O)N[C@@H](Cc1c[nH]c2ccccc12)C(=O)N[C@@H](CCSC)C(=O)N[C@@H](CC(=O)O)C(N)=O [Cbz-Tyr(SO3 H)-Met-Gly-Trp-Met-Asp-NH2] (Cbz-[sY]MGWMD-NH2) | – | – | CCK antagonist activity (CCK receptor): can function as CCK antagonists; also recorded: partial agonist
Fc1ccccc1C1=N[C@H](Cc2c[nH]c3ccccc23)C(Nc2ccccc2)=Nc2ccccc21 [Example 1, 2-Phenylamino-3(R)-(3'-indolyl)methyl-5-(2'-fluorophenyl)-2H-1,4-benzodiazepine] | 100 | 34 | –
NC1=Nc2ccccc2C(c2ccccc2F)=N[C@@H]1Cc1c[nH]c2ccccc12 [Example 3, 2-Amino-3(R)-(3'-indolyl)methyl-5-(2'-fluorophenyl)-2H-1,4-benzodiazepine] | – | – | IC50 [2]: 1.7 µM
CNC1=Nc2ccccc2C(c2ccccc2F)=N[C@@H]1Cc1c[nH]c2ccccc12 [Example 4, 2-Methylamino-3(R)-(3'-indolyl)methyl-5-(2'-fluorophenyl)-2H-1,4-benzodiazepine] | > 100 | 4.5 | IC50 (gastrin receptor): 67 µM
CCOC(=O)CNC1=Nc2ccccc2C(c2ccccc2F)=N[C@@H]1Cc1c[nH]c2ccccc12 [Example 5, 2-Ethoxycarbonylmethylamino-3(R)-(3'-indolyl)methyl-5-(2'-fluorophenyl)-2H-1,4-benzodiazepine] | 49 | 23 | –
N#CNC1=Nc2ccccc2C(c2ccccc2F)=N[C@@H]1Cc1c[nH]c2ccccc12 [Example 6, 2-Cyanoamino-3(R)-(3'-indolyl)methyl-5-(2'-fluorophenyl)-2H-1,4-benzodiazepine] | 100 | 2 | –
CCCNC1=Nc2ccccc2C(c2ccccc2F)=N[C@@H]1Cc1c[nH]c2ccccc12 [Example 7, 2-Propylamino-3(R)-(3'-indolyl)methyl-5-(2-fluorophenyl)-2H-1,4-benzodiazepine] | > 100 | – | IC50 [2]: 2.7 µM
O=C(O)CNC1=Nc2ccccc2C(c2ccccc2F)=N[C@@H]1Cc1c[nH]c2ccccc12 [Example 8, 2-Carboxymethylamino-3(R)-(3'-indolyl)methyl-5-(2'-fluorophenyl)-2H-1,4-benzodiazepine] | 31 | 3.6 | IC50 (gastrin receptor): 2.7 µM
O=C(O)CNC1=Nc2ccccc2C(c2ccccc2)=NC1NC(=O)Nc1ccc(Cl)cc1 (centres unmarked) [Example 9, N-[3-(((4-Chlorophenyl)aminocarbonyl)amino)-5-phenyl-3H-1,4-benzodiazepin-2-yl]-glycine] | 0.11 | 0.069 | IC50 (gastrin receptor): 0.032 µM
CCOC(=O)CNC1=Nc2ccccc2C(c2ccccc2)=NC1NC(=O)Nc1ccc(Cl)cc1 (centres unmarked) [Example 10, N-[3-(((4-Chlorophenyl)aminocarbonyl)amino)-5-phenyl-3H-1,4-benzodiazepin-2-yl]-glycine ethyl ester] | – | 1.4 | –
CSCC[C@H](N)C(=O)N[C@@H](CC(=O)O)C(=O)N[C@@H](Cc1ccccc1)C(N)=O [Met-Asp-Phe-NH2] (H-Met-Asp-Phe-NH2) | – | – | CCK antagonist activity (CCK receptor): can function as CCK antagonists
CCCC(=O)Nc1nc2c(ncn2[C@@H]2O[C@@H]3COP(=O)(O)O[C@H]3[C@H]2OC(=O)CCC)c(=O)[nH]1 [dibutyryl cyclic GMP] | – | – | CCK antagonist activity (CCK receptor): the most potent
c1cnc2c(c1)ccc1cccnc12 [o-phenanthroline, reference compound] | – | – | effect on the 125I-CCK receptor binding assay [2]: no effect
O=S(=O)(F)Cc1ccccc1 [phenylmethane sulfonyl fluoride, reference compound] | – | – | effect on the 125I-CCK receptor binding assay [2]: no effect
CCCN(CCC)C(=O)C(CCC(=O)O)NC(=O)c1ccccc1 (centres unmarked) [proglumide] | – | – | gastrin antagonist activity (gastrin): very weak in vitro antagonists
